The source of these data is ChEMBL document CHEMBL1909046, “DrugMatrix in vitro pharmacology data”.

The target of experiment [1] is Sodium-dependent noradrenaline transporter (Homo sapiens, UniProt P23975). Nature of the experiment: DRUGMATRIX: Norepinephrine Transporter radioligand binding (ligand: [125I] RTI-55). The class given is cell membranes, MDCK, Membrane. The settings on record: Not Active = under 50% inhibition at 10 µM.
Experiment [2] concerns the target T1, Cysteinyl leukotriene receptor 1 (Homo sapiens, UniProt Q9Y271). Further: in other assays of this panel Not Active means under 50% inhibition at 10 µM.
T1 sequence (Q9Y271 whole entry): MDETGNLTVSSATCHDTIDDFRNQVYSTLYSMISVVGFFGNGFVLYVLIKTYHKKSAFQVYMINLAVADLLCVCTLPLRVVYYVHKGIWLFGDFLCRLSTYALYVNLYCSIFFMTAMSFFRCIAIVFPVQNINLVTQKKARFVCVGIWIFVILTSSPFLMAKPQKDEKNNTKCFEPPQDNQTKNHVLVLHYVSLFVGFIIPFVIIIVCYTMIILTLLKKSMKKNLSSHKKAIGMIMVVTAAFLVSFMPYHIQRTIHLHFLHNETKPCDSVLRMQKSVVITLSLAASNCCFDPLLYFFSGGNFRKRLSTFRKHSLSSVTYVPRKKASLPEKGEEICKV
The class given is cell membranes, Membrane. The note with it: cho-k1.

In experiment [3] the target is T2, Amine oxidase [flavin-containing] A (Homo sapiens, UniProt P21397).
T2 sequence (P21397 whole entry): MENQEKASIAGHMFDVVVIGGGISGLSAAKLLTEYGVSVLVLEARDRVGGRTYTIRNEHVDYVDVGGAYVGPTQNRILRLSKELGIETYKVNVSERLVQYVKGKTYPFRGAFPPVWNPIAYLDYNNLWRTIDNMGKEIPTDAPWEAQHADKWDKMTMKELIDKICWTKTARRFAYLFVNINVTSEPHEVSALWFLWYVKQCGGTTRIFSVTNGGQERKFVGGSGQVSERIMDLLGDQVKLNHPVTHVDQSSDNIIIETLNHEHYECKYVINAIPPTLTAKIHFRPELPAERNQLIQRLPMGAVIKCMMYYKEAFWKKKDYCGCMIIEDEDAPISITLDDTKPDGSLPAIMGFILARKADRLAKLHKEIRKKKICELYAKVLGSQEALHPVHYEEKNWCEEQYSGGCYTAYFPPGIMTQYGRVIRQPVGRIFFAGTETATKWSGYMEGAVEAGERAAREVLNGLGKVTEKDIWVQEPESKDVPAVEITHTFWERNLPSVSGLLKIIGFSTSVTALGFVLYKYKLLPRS
Nature of the experiment: DRUGMATRIX: Monoamine Oxidase MAO-A enzyme inhibition (substrate: Kynuramine). Set-up: species or system BTI-TN-5B1-4. The note with it: Not Active = under 50% inhibition at 10 µM.

The target of experiment [4] is 5-hydroxytryptamine receptor 2B (Homo sapiens, UniProt P41595). The class given is cell membranes, CHO-K1, Membrane. The note with it: for Ki: read-out: Ki. On all read-outs here: in other assays of this panel Not Active means under 50% inhibition at 10 µM.
Experiment [5] has as its target Protein phosphatase 3 catalytic subunit alpha (Homo sapiens, UniProt Q08209). On the set-up: species or system Escherichia coli.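 Further: inhibition of calcineurin (PP2B) enzyme activity, measured with DiFMUP as the substrate; in other assays of this panel Not Active means under 50% inhibition at 10 µM.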
The nature of experiment [6]: DRUGMATRIX: Purinergic P2X radioligand binding (ligand: [3H] alpha, beta-Methylene-ATP). The class given is cell membranes, Oryctolagus cuniculus, New Zealand albino, Urinary bladder, Membrane. The settings on record: Not Active = under 50% inhibition at 10 µM.
For experiment [7], the target named is Estrogen receptor beta (Homo sapiens, UniProt Q92731). The note with it: sf9. Further: in other assays of this panel Not Active means under 50% inhibition at 10 µM.

The structures appear in SMILES notation.

Sequence of Estrogen receptor beta (Q92731 whole entry): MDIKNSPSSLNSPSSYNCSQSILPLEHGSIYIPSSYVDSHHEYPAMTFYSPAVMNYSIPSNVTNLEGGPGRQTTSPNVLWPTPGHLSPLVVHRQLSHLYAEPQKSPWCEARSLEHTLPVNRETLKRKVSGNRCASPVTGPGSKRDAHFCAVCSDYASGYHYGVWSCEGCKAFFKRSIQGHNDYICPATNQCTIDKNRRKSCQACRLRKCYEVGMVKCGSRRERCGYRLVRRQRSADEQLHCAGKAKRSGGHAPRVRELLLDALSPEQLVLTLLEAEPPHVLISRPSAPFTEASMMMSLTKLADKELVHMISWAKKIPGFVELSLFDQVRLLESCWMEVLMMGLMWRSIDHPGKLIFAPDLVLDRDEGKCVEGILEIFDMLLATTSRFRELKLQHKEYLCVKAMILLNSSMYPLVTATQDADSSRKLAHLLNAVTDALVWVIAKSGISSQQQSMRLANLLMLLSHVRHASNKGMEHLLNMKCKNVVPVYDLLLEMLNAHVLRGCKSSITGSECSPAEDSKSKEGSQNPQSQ
Sequence of Sodium-dependent noradrenaline transporter (P23975 whole entry): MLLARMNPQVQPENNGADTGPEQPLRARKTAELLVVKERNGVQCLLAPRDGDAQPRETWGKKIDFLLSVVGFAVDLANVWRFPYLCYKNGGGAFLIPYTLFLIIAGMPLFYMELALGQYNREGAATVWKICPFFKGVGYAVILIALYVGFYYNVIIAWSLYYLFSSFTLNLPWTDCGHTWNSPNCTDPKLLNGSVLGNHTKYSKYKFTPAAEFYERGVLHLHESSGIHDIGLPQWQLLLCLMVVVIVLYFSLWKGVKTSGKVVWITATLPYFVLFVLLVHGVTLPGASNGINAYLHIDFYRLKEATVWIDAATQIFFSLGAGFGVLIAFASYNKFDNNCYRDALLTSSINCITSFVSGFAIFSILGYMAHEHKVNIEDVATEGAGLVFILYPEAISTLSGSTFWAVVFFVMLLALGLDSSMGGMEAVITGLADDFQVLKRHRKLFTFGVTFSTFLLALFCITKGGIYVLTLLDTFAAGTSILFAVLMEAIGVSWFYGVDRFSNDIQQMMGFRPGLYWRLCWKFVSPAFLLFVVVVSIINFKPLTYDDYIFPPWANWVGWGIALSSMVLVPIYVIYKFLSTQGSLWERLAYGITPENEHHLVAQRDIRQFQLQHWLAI
Sequence of 5-hydroxytryptamine receptor 2B (P41595 whole entry): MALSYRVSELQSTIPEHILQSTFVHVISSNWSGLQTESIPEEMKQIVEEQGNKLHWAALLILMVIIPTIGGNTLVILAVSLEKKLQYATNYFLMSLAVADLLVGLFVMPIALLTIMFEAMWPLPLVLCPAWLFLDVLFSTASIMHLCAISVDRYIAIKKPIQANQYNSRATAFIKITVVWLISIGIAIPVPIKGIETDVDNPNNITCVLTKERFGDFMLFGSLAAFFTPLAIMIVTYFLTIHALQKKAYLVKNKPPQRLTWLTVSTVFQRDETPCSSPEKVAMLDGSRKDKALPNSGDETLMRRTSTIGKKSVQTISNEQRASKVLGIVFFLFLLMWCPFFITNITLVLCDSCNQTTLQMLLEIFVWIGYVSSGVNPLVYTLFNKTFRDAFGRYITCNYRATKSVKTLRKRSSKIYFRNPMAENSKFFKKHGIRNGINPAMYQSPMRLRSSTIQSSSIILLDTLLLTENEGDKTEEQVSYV

Take `CCOC(=O)[C@H](CCc1ccccc1)N[C@@H](C)C(=O)N1CCC[C@H]1C(=O)O`: the IC50 entry in experiment [1] (mdck), in experiment [2], in experiment [3] (bti-tn-5b1-4), in experiment [4] (cho-k1), in experiment [5] and in experiment [6] was “Not Active” in each case. The Ki result in experiment [6] was “Not Active”.

As for `C=C1/C(=C\C=C2/CCC[C@]3(C)[C@@H]([C@H](C)CCCC(C)C)CC[C@@H]23)C[C@@H](O)C[C@@H]1O` [ALFACALCIDOL], the IC50 result in experiment [2], in experiment [3] (bti-tn-5b1-4), in experiment [7], in experiment [4] (cho-k1), in experiment [5] and in experiment [6] was “Not Active” throughout. The Ki result in experiment [6] is “Not Active”.

In the case of `[N-]=[N+]=CC(=O)OC[C@H](N)C(=O)O` [AZASERINE], the concentration for half-maximal inhibition (IC50) entry in experiment [1] (mdck), in experiment [2], in experiment [3] (bti-tn-5b1-4), in experiment [4] (cho-k1), in experiment [5] and in experiment [6] was “Not Active” in each case. Moreover, the inhibition constant (Ki) entry in experiment [6] is reported as “Not Active”.

For the compound `CC(C)C[C@H]1C(=O)N2CCC[C@H]2[C@]2(O)O[C@](NC(=O)[C@@H]3C=C4c5cccc6[nH]c(Br)c(c56)C[C@H]4N(C)C3)(C(C)C)C(=O)N12` [BROMOCRIPTINE], the IC50 result in experiment [1] (mdck) was “Not Active”; in experiment [2], “Not Active”; in experiment [3] (bti-tn-5b1-4), “Not Active”; in experiment [4] (read-out: IC50) it was 8.32 nM; in experiment [5], “Not Active”; in experiment [6] it was “Not Active”. Also, the Ki in experiment [4] is 5.29 nM; in experiment [6], “Not Active”.

For `CS(=O)(=O)OCCCCOS(C)(=O)=O` [BUSULFAN], the IC50 result in experiment [1] (mdck), in experiment [2], in experiment [3] (bti-tn-5b1-4), in experiment [4] (cho-k1), in experiment [5] and in experiment [6] was “Not Active” throughout. In addition, the Ki result in experiment [6] is recorded as “Not Active”.

Turning to `Nc1nc(Cl)nc2c1ncn2[C@H]1C[C@H](O)[C@@H](CO)O1` [CLADRIBINE], the half-inhibitory concentration (IC50) entry in experiment [1] (mdck), in experiment [2], in experiment [3] (bti-tn-5b1-4), in experiment [4] (cho-k1), in experiment [5] and in experiment [6] was “Not Active” in each case. In addition, the Ki result in experiment [6] is given as “Not Active”.

As for `CC[C@H]1OC(=O)[C@H](C)[C@@H](O[C@H]2C[C@@](C)(OC)[C@@H](O)[C@H](C)O2)[C@H](C)[C@@H](O[C@@H]2O[C@H](C)C[C@H](N(C)C)[C@H]2O)[C@](C)(OC)C[C@@H](C)C(=O)[C@H](C)[C@@H](O)[C@]1(C)O` [CLARITHROMYCIN], the IC50 entry in experiment [1] (mdck), in experiment [2], in experiment [3] (bti-tn-5b1-4), in experiment [4] (cho-k1), in experiment [5] and in experiment [6] was “Not Active” each time. For the same compound, the Ki entry in experiment [6] is reported as “Not Active”.

Take `C#C[C@]1(O)CC[C@H]2[C@@H]3CCC4=Cc5oncc5C[C@]4(C)[C@H]3CC[C@@]21C` [DANAZOL]: the IC50 result in experiment [2], in experiment [3] (bti-tn-5b1-4), in experiment [7], in experiment [4] (cho-k1), in experiment [5] and in experiment [6] was “Not Active” throughout. In addition, the Ki entry in experiment [6] was “Not Active”.

With `CCN[C@@H](C)Cc1cccc(C(F)(F)F)c1` [DEXFENFLURAMINE], the IC50 entry in experiment [1] (mdck), in experiment [2], in experiment [3] (bti-tn-5b1-4), in experiment [4] (cho-k1), in experiment [5] and in experiment [6] was “Not Active” in each case. For the same compound, the inhibitory constant (Ki) entry in experiment [6] is on record as “Not Active”.

For the compound `CN1C(=O)CN=C(c2ccccc2)c2cc(Cl)ccc21` [DIAZEPAM], the IC50 entry in experiment [1] (mdck), in experiment [2], in experiment [3] (bti-tn-5b1-4), in experiment [4] (cho-k1), in experiment [5] and in experiment [6] was “Not Active” throughout. Also, the Ki entry in experiment [6] is listed as “Not Active”.

For the compound `C=C(CC)C(=O)c1ccc(OCC(=O)O)c(Cl)c1Cl` [ETHACRYNIC ACID], the IC50 result in experiment [1] (mdck), in experiment [2], in experiment [3] (bti-tn-5b1-4), in experiment [4] (cho-k1), in experiment [5] and in experiment [6] was “Not Active” throughout. Further, in experiment [6], the Ki entry was “Not Active”.

With `C#C[C@]1(O)CC[C@H]2[C@@H]3CCc4cc(O)ccc4[C@H]3CC[C@@]21C` [ETHINYL ESTRADIOL], the IC50 entry in experiment [2], in experiment [3] (bti-tn-5b1-4), in experiment [7], in experiment [4] (cho-k1), in experiment [5] and in experiment [6] was “Not Active” in each case. For the same compound, the Ki entry in experiment [6] is recorded as “Not Active”.

With `OCCO` [ETHYLENE GLYCOL], the IC50 entry in experiment [1] (mdck), in experiment [2], in experiment [3] (bti-tn-5b1-4), in experiment [4] (cho-k1), in experiment [5] and in experiment [6] was “Not Active” in each case. In addition, in experiment [6], the Ki result is “Not Active”.

Consider `O=C(O)Cc1ccc(-c2ccccc2)cc1` [FELBINAC], for which the IC50 result in experiment [1] (mdck), in experiment [2], in experiment [3] (bti-tn-5b1-4), in experiment [4] (cho-k1), in experiment [5] and in experiment [6] was “Not Active” each time. In experiment [6], the Ki entry is given as “Not Active”.

For the compound `Cc1cnc(C(=O)NCCc2ccc(S(=O)(=O)NC(=O)NC3CCCCC3)cc2)cn1` [GLIPIZIDE], the IC50 entry in experiment [1] (mdck), in experiment [2], in experiment [3] (bti-tn-5b1-4), in experiment [7], in experiment [4] (cho-k1) and in experiment [6] was “Not Active” each time. Further, the Ki entry in experiment [6] was “Not Active”.

Turning to `N=C(N)N/N=C/c1c(Cl)cccc1Cl` [GUANABENZ], the 50% inhibitory concentration (IC50) result in experiment [1] (mdck) was “Not Active”; in experiment [2] it was “Not Active”; in experiment [3] (read-out: IC50) it was 1790 nM; in experiment [4] (read-out: IC50), 97 nM; in experiment [5] it was “Not Active”; in experiment [6], “Not Active”. For the same compound, the figures for the Ki in experiment [4] and in experiment [6] were 62 nM and “Not Active”, respectively.

On to `C/C=C\c1ccc(O)c(OC)c1` [ISOEUGENOL], for which the IC50 result in experiment [1] (mdck), in experiment [2], in experiment [3] (bti-tn-5b1-4), in experiment [4] (cho-k1), in experiment [5] and in experiment [6] was “Not Active” throughout. Moreover, the Ki result in experiment [6] is reported as “Not Active”.

Consider `NC[C@H]1O[C@H](O[C@H]2[C@H](O)[C@@H](O[C@H]3O[C@H](CO)[C@@H](O)[C@H](N)[C@H]3O)[C@H](N)C[C@@H]2N)[C@H](O)[C@@H](O)[C@@H]1O` [KANAMYCIN], for which the IC50 result in experiment [1] (mdck), in experiment [2], in experiment [3] (bti-tn-5b1-4), in experiment [4] (cho-k1), in experiment [5] and in experiment [6] was “Not Active” in each case. Also, the inhibition constant Ki entry in experiment [6] was “Not Active”.

For the compound `CC(=O)O[C@]1(C(C)=O)CC[C@H]2[C@@H]3C=C(C)C4=CC(=O)CC[C@]4(C)[C@H]3CC[C@@]21C` [MEGESTROL ACETATE], the IC50 result in experiment [1] (mdck), in experiment [2], in experiment [3] (bti-tn-5b1-4), in experiment [4] (cho-k1), in experiment [5] and in experiment [6] was “Not Active” throughout. Moreover, in experiment [6], the Ki entry was “Not Active”.

Turning to `COc1ccccc1OCC(O)COC(N)=O` (stereo not given) [METHOCARBAMOL], the IC50 entry in experiment [1] (mdck), in experiment [2], in experiment [3] (bti-tn-5b1-4), in experiment [4] (cho-k1), in experiment [5] and in experiment [6] was “Not Active” each time. Further, the inhibition constant (Ki) entry in experiment [6] is “Not Active”.

Take `COc1ccc2cc(CCC(C)=O)ccc2c1` [NABUMETONE]: the IC50 was 1870 nM in experiment [1] (read-out: IC50); “Not Active” in experiment [2]; “Not Active” in experiment [7]; “Not Active” in experiment [4] (cho-k1); “Not Active” in experiment [5]; “Not Active” in experiment [6]. The figures for the Ki in experiment [1] (read-out: Ki) and in experiment [6] were 1850 nM and “Not Active”, respectively.
